# Test results from ChEMBL document CHEMBL1201862, “PubChem BioAssay data set” (2004).
# The source made the active and inactive calls.
# Experiments:
# [1] = PAX5 cellular inhibition readout – cell-based, plate reader, dry powder samples, selectivity assay for PAX8 inhibitor project, dose response (AID 743047); assay type: functional;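 note: HEK293 cells carrying a Pax5 driven CD19 promoter luciferase reporter; potency of inhibitors that lower reporter luminescence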
# [2] = OVCAR4 cell viability loss – plate reader, dry powder, SA11, cytotoxicity control for PAX8 inhibitor project, dose response (AID 743150); assay type: functional, cell-based; details: OVCAR-4
# [3] = COV362 cell viability loss – plate reader, dry powder, SA12, cytotoxicity control for PAX8 inhibitor project, dose response (AID 743144); assay type: functional, cell-based
# [4] = PAX8-dependent cell viability loss – plate reader, dry powder, dose response (AID 743049); assay type: functional, cell-based
# [5] = OV-90 cell viability loss – plate reader, dry powder, SA8, PAX8 inhibitor project, dose response (AID 743149); assay type: functional, cell-based
# Paired box protein Pax-8 = Paired box protein Pax-8 (Homo sapiens, UniProt Q06710); assay: PAX8 transcriptional activity inhibition in RMG-I – RMG-I cells, luciferase, cherry-pick, dose response (AID 687027); assay type: functional, cell-based;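 note: luciferase reporter driven by Pax8 target thyroperoxidase promoter measured by SteadyGlo luminescence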
# [6] = inhibitors acting on PAX2 in cells – cell-based, plate reader, dry powder samples, selectivity assay for PAX8 inhibitor project, dose response (AID 743048); assay type: functional;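 note: HEK293 cells carrying a WT1 promoter luciferase reporter driven by expressed Pax2; potency is for inhibition of Pax2 driven reporter signal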
# [7] = target: 1-phosphatidylinositol 4,5-bisphosphate phosphodiesterase beta-3 (Homo sapiens, UniProt Q01970); assay: Fluorescence-based biochemical high throughput dose response assay to identify inhibitors of phospholipase C isozymes (PLC-B3).
# [8] = target: 1-phosphatidylinositol 4,5-bisphosphate phosphodiesterase gamma-1 (Homo sapiens, UniProt P19174); assay: Counterscreen for inhibitors of phospholipase C isozymes (PLC-B3): Fluorescence-based biochemical high throughput dose response assay to identify inhibitors of phospholipase C isozymes (PLC-gamma1).
# [9] = target: G-protein coupled receptor 183 (Homo sapiens, UniProt P32249); assay: SAR confirmation of small molecule antagonists of the EBI2 receptor via a luminescent beta-arrestin assa.; assay type: functional
# [10] = Dd2 parasite growth inhibition in erythrocytes – SYBR Green, dry powder samples, set 9, dose response (AID 1159568); assay type: functional, cell-based
# [11] = Reduced DLD-1 viability, concentration-response, CellTiter-Glo luminescence (AID 1117352); assay type: functional
# [12] = RKO cell viability reduction, dose response, CellTiter-Glo luminescence (AID 1117322); assay type: functional
# [13] = HCT116 cell viability decrease, GSK3B pretreatment – CellTiter-Glo, IC50, dose response (AID 1117339); assay type: functional; details: HCT-116
# [14] = cytotoxicity toward HCT116 cells – cell-based, CellTiter-Glo luminescence, IC50, dose response (AID 1117332); assay type: functional; details: HCT-116
# [15] = SNU-C1 cell viability reduction, dose response, CellTiter-Glo luminescence (AID 1117323); assay type: functional, cell-based
# [16] = cytotoxicity toward HT-29 cells – cell-based, CellTiter-Glo luminescence, IC50, dose response (AID 1117330); assay type: functional
# [17] = CellTiter-Glo luminescence survival assay, SW480 colon tumor line, concentration-response curve, half-maximal inhibitory concentration (AID 1117338); assay type: functional
# [18] = cytotoxicity toward Colo320 cells – cell-based, CellTiter-Glo luminescence, IC50, dose response (AID 1117334); assay type: functional; details: COLO 320
# [19] = toxicity to human HepG2 hepatoma cells – cell-based, plate reader, dry powder samples, cytotoxicity control, dose response (AID 1159569); assay type: functional;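 note: inhibitor potency with signal falling toward the positive control level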
# [20] = growth inhibition of PfATP4-mutant resistant parasites – NITD609-resistant line, SYBR Green, dry powder, dose response (AID 1159571); assay type: functional, cell-based;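 note: parasites synchronized at ring stage by sorbitol before testing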
# [21] = growth inhibition of yeast DHODH-expressing 3D7 parasites – SYBR Green, dry powder samples, dose response (AID 1159570); assay type: functional, cell-based;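 note: parasite growth measured after 72 hours of compound exposure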
# [22] = P. falciparum Dd2 growth inhibitors, dose response, SYBR Green, cherry-picked samples (AID 1159567); assay type: functional, cell-based
# [23] = Dd2 malaria parasite growth inhibition potency – SYBR Green, dry powder samples, dose response (AID 1159566); assay type: functional, cell-based;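 note: potency for growth inhibition with lower SYBR green DNA signal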
# [24] = IC50 of insulin release inhibition, rat insulinoma INS-1E line, 5 mM glucose, cell-based (AID 1117331); assay type: functional
# [25] = glucagon-like peptide-1 release potency in STC-1, concentration-response, half-maximal inhibitory concentration in the STC-1 line (AID 1117345); assay type: functional, cell-based
# [26] = Potency on glucagon-like peptide 1 release, dose-response in NCI-H716 cell line, half maximal inhibitory concentration (AID 1117344); assay type: functional, cell-based
# Sequence of G-protein coupled receptor 183 (P32249 whole entry): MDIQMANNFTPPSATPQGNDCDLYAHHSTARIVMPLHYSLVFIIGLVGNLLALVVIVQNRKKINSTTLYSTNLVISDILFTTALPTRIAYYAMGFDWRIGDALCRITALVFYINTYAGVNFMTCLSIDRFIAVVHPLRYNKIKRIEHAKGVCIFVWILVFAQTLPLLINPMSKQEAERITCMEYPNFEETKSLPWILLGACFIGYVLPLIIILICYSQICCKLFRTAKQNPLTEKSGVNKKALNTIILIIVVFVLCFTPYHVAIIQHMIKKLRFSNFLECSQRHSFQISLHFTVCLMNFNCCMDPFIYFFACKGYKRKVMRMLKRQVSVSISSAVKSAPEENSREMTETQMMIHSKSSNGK
# Sequence of 1-phosphatidylinositol 4,5-bisphosphate phosphodiesterase beta-3 (Q01970 whole entry): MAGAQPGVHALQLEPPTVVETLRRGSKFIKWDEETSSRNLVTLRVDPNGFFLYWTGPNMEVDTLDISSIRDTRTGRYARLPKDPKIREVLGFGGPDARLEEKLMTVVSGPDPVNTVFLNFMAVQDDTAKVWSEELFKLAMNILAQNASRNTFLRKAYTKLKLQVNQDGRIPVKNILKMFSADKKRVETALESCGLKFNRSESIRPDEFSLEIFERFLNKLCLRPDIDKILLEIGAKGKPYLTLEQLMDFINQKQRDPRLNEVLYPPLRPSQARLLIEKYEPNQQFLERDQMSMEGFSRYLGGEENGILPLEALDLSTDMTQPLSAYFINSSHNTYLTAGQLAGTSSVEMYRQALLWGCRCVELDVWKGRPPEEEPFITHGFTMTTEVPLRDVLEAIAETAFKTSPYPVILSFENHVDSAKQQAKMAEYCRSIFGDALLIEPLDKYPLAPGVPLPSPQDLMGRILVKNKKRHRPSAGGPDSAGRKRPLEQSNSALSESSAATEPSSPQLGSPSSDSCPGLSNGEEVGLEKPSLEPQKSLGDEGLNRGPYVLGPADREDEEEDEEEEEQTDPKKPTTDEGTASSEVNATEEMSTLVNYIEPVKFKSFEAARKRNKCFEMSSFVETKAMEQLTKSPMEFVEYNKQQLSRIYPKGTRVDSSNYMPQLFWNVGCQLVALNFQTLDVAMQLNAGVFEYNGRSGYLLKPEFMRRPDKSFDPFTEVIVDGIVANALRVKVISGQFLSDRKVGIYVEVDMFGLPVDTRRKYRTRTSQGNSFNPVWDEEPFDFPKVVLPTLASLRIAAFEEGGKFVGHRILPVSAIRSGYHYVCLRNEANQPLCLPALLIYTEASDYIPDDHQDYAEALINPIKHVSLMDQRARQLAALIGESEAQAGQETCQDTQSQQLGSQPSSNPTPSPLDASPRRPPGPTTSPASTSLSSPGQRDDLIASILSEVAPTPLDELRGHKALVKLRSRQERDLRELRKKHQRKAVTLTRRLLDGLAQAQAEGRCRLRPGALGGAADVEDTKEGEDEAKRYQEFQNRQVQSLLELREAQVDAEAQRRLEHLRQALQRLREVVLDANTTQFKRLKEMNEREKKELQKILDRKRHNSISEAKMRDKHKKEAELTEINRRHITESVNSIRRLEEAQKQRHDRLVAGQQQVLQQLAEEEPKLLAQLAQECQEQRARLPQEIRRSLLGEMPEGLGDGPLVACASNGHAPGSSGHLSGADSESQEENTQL
# Sequence of 1-phosphatidylinositol 4,5-bisphosphate phosphodiesterase gamma-1 (P19174 whole entry): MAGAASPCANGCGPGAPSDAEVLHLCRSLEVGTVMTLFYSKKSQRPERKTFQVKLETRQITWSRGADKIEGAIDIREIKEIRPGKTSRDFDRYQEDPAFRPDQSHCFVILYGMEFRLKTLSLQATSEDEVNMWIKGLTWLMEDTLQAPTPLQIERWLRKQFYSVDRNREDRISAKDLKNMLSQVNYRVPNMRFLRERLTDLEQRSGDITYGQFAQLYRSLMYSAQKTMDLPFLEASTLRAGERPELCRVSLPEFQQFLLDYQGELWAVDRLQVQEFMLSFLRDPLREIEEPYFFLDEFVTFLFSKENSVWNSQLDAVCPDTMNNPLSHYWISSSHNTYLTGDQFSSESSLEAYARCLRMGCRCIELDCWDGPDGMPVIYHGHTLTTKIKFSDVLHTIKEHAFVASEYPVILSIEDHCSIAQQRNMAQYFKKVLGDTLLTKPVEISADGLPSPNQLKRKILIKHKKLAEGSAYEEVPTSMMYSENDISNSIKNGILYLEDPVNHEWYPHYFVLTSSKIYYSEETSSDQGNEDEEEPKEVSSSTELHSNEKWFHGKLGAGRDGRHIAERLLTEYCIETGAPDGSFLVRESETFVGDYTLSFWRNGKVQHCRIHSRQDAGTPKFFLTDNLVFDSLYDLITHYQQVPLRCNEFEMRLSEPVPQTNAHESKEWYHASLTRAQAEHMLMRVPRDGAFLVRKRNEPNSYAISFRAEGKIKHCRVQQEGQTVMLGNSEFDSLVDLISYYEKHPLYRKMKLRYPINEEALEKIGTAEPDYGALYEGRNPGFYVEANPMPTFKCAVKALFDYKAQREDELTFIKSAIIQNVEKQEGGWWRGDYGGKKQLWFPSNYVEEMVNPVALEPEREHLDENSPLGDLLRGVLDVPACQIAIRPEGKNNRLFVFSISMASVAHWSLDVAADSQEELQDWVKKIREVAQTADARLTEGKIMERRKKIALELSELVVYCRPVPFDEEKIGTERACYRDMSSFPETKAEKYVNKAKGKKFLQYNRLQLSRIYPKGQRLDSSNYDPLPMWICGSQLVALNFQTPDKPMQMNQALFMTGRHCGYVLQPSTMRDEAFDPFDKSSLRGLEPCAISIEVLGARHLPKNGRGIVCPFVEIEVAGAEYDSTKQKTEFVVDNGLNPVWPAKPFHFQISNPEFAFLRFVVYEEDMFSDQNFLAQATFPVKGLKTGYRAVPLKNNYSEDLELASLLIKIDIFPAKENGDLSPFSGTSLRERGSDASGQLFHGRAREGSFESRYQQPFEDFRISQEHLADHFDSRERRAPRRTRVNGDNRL
# Sequence of Paired box protein Pax-8 (Q06710 whole entry): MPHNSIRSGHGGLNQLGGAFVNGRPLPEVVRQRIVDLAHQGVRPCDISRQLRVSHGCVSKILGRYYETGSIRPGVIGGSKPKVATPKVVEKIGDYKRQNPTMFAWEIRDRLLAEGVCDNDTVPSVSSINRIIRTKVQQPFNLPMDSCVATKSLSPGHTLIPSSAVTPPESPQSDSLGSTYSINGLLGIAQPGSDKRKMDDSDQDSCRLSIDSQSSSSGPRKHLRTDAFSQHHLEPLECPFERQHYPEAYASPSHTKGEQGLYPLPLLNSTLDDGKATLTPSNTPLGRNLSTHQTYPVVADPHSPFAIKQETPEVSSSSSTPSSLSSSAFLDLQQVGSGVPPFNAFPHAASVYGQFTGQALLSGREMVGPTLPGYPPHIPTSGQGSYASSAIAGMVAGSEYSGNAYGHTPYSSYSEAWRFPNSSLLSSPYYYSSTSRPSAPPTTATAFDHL
structure (smiles),measurement,setting,value
CCc1cnc(N2[C@@H](C#N)[C@@H](c3ccc(C#CC(C)C)cc3)[C@@H]2CO)s1,AC50,[1],29.4 µM (active)
same,AC50,[2],23.6 µM (active)
same,AC50,[3],> 70 µM (inactive)
same,AC50,[4],35.3 µM (active)
same,AC50,[5],39.6 µM (active)
same,AC50,Paired box protein Pax-8,15.4 µM (active)
same,AC50,[6],24.7 µM (active)
CC[C@H]1C=C[C@@H](C(=O)NS(=O)(=O)c2ccc(C)cc2)N(C(C)=O)C1,IC50,[7],> 122 µM (inactive)
same,IC50,[8],> 122 µM (inactive)
O=C(/C=C/c1ccc(F)cc1)N1CCN(S(=O)(=O)c2ccccc2)CC1,IC50,[9],0.0125 µM (active)
C[C@@H]1CN([C@@H](C)CO)C(=O)c2cc(C#Cc3ccccc3)cnc2O[C@H]1CN(C)C(=O)c1ccccc1,AC50,[10],4.99 µM (active)
CCCCCCCCCCCCCCCC(=O)OCC=C(C)C=CC=C(C)C=CC1=C(C)CCCC1(C)C,IC50,[11],> 20 µM (inactive)
same,IC50,[12],> 20 µM (inactive)
same,IC50,[13],> 20 µM (inactive)
same,IC50,[14],> 20 µM (inactive)
same,IC50,[15],> 20 µM (inactive)
same,IC50,[16],> 20 µM (inactive)
same,IC50,[17],> 20 µM (inactive)
same,IC50,[18],> 20 µM (inactive)
CCCNC(=O)N1[C@H](C#N)[C@H](c2ccc(C3=CCCCC3)cc2)[C@@H]1CO,AC50,[19],0.601 µM (active)
same,AC50,[10],0.355 µM (active)
same,AC50,[20],0.0853 µM (active)
same,AC50,[21],3.39 µM (active)
same,AC50,[22],< 0.3 µM (active)
same,AC50,[23],0.0228 µM (active)
O=C(/C=C/c1ccc(Br)cc1)N1CCN(S(=O)(=O)c2ccc(Br)cc2)CC1,IC50,[9],0.00166 µM (active)
CC(C)CCCC(C)NCCC(C)C (configuration not stated) [OCTAMYLAMINE],IC50,[24],> 33.3 µM (inactive)
same,IC50,[25],> 40 µM (inactive)
same,IC50,[26],> 40 µM (inactive)
CC(=C(CCOC(=O)C(C)C)SSC(CCOC(=O)C(C)C)=C(C)N(C=O)Cc1cnc(C)nc1N)N(C=O)Cc1cnc(C)nc1N [SULBUTIAMINE],IC50,[24],> 33.3 µM (inactive)
same,IC50,[25],> 40 µM (inactive)
same,IC50,[26],2.39 µM (active)
